{
  "source": "patent US7893024B2",
  "about": "“Enhancement of iron chelation therapy” (priority 2002, dated 2011)",
  "key": {"[1]": {"target": "T1, ferritin (Aquarana catesbeiana, UniProt P07229)", "T1 construct": "made in house; host or cells: E. coli BL21-DE3-PLysS, vector pET-9a", "T1 sequence (P07229 2-176)": "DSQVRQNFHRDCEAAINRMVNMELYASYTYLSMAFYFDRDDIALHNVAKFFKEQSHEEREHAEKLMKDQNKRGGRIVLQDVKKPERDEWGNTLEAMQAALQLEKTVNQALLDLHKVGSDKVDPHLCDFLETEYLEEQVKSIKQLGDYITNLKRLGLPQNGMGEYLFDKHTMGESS", "experiment": "Iron release from ferritin with Desferal substituted for bipyridyl, Fe(III)-Desferal complex monitored at 430 nm", "format": "biochemical", "details": "H-Wild Type ferritin, in the absence of urea", "excerpt": "Desferal® (desferrioxamine mesylate or DFO), a chelator of Fe(III), is currently the drug of choice to remove Fe from patients with excess tissue iron accumulated from monthly transfusions to treat betaglobin gene mutations (Sickle Cell Disease and Beta Thalassemia). Positive selection has made the mutations relatively common (<10%) in areas of the world where malaria is endemic. […] In order to determine if unfolding ferritin pores increased Desferal® chelation of ferritin Fe, the chelator was substituted for bipyridyl in the mixture of NADH/FMN usually used. Formation of the Fe(III)— Desferal® complex was monitored at 430 nm, the absorbance maximum under the conditions used."}, "[2]": {"system": "ferritin", "details": "Crichton et al. 1980; cited from earlier work"}, "[3]": {"target": "T1, ferritin", "experiment": "Iron release from mineralized recombinant ferritin monitored as formation of Fe(II)-bipyridyl (A522 nm), NADH/FMN reductant", "format": "biochemical", "details": "for increase in the initial rate of iron release: in combination with the chelator 2,2′-bipyridine", "method": "Briefly, as described in further detail below, recombinant ferritin was expressed, isolated, and mineralized. The mineralized, recombinant ferritin was incubated with a protein unfolding reagent (e.g., urea, guanidine, or Triton X-100). Chelator and reductant was then added to the reaction, and rates of iron release were monitored by UV absorbance detection of formation of Fe(II)-bipyridyl (A522 nm/sec).\nProduction of recombinant ferritin. Recombinant ferritin was expressed using bullfrog sequences as the kinetic properties have been particularly favorable for study (Takagi H., et al. (1998) J. Biol. Chem. 273:18685)(18)(19)(20). Crystallographic studies of frog and human ferritins (Trikha, J., Theil, E. C. & Allewell, N. M. (1995) J Mol Biol 248, 949-67)(Hempstead, P. D., Yewdall, S. J., Fernie, A. R., Lawson, D. M., Artymiuk, P. J., Rice, D. W., Ford, G. C., & Harrison, P. M. (1997) J. Mol. Biol. 268, 424-448) show very similar structures and mechanisms (Bou-Abdallah, F., Papaefthymiou, G. C., Scheswohl, D. M., Stanga, S. D., Arosio, P. & Chasteen, N. D. (2002) Biochem J. 364, 57-63)(Hwang, J., Krebs, C., Huynh, B. H., Edmondson, D. E., Theil, E. C. & Penner-Hahn, J. E. (2000) Science 287, 122-125)(18). […] Two proteins were compared in the study: H-wild type and H-L134P, an “open” pore protein for which the crystal structure is known (Takagi H., et al. (1998) J. Biol. Chem. 273:18685). Sequences coding H-wild type and H-L134P ferritin were inserted into the vector pET-9a and expressed in E. coli BL21-DE3-PLysS (Stratagene®). The recombinant proteins were isolated as the 24-subunit assembly without Fe (<0.5/subunit) using methods previously described (20).\nMineralization of ferritin. Recombinant ferritin was mineralized by adding a freshly prepared, acidic solution of FeSO4 (to minimize oxidation and hydrolysis) to apoferritin in buffer and incubating at room temperature for 1 hour and then overnight at 4° C., to complete hydrolysis of ferric mineral precursors (18). The final solution was 2.08 μM protein with 480 Fe/protein ([…]) in 0.1 M MOPS, 0.1M NaCl, pH=7. Sterile solutions of mineralized ferritin are stable for months to years.\nMeasurement of iron release rates. Rates of Fe exit from ferritin (rates of dissolving the Fe biomineral) were monitored as formation of Fe(II)-bipyridyl (A522 nm/sec). The reaction was started by mixing an equal volume of mineralized ferritin with an equal volume of a solution of a NADH (5 mM), FMN (5 mM), and bipyridyl (5 mM) as first described by Jones and Walsh (21). The initial rates of iron chelation were calculated by taking the linear ascending part of the multiphasic reaction curve, averaged from 3 independent assays/protein preparations and 2-3 independent protein preparations.\nTriton X-100 and Urea. One set of reactions was treated with Triton X-100 at final concentrations of 0.1%, 1.0% or 10% (volume/volume). A second set of reactions was treated with urea at final concentrations of 1 mM, 10 mM, or 1M. A third set of reactions was treated with a control solution containing only buffer. All three sets of ferritin solutions were incubated further for 17-20 hours (i.e., overnight) at 4° C., then returned to room temperature. Iron release was initiated by the addition of 2.5 mM bipyridine, 2.5 mM NADH, and 2.5 mM FMN (final concentrations). The amount of iron released from ferritin was monitored at room temperature, over a period of one hour, by appearance of absorbance at 522 nm due to formation of the Fe(II)-bipyridyl complex.\nUrea, Guanidine HCl, and Triton X-100. The effects on iron release from ferritin of urea, guanidine hydrochloride, and Triton X-100 were studied by mixing solutions of the mineralized protein with a protein unfolding reagent and incubating at room temperature for 1 hour, followed by incubating overnight at 4° C. before adding reductant and chelator. […]"}, "[4]": {"system": "HeLa cells", "experiment": "Cell viability by trypan blue exclusion test", "protocol": "HeLa cells, cultured in DMEM medium with 10% FBS, were incubated with the protein unfolding agents for 24 hours at 37° C. in 12-well plates. Cells were treated with trypsin, fresh medium was added and the cells were suspended in the fresh DMEM medium with 10% FBS. Cell suspensions were mixed 1:4 with trypan blue in 0.85% NaCl (weight/volume), incubated 5 minutes at room temperature, then examined by light microscopy in a hemocytometer chamber. Blue cells are scored as non-viable. For each condition, 1-3 analyses were performed."}, "[5]": {"target": "T1, ferritin", "experiment": "Subdomain unfolding of ferritin by circular dichroism (helix/coil transition)", "design": "species or system bullfrog", "method": "The effects of protein unfolding agents on subdomain unfolding of ferritin were monitored as changes in the Circular Dichroism (CD) spectra. Both wild type ferritin (H-WT) and the open pore mutant H-L134P were analyzed. Solutions of mineralized protein (2.08×10^−1 μM in 10 mM MOPS buffer, pH 7.0), were incubated with or without 1 mM urea overnight as described herein, and equilibrated for 10 minutes at the selected temperature before recording spectra between 300 nm to 200 nm. CD spectra recorded on a Pi-180 spectrophotometer (Applied Photophysics, Surrey, UK) over the temperature range of 5° C. to 65° C. Spectra were recorded in a cuvette with a 1 cm path length at protein concentrations of 2×10^−7 M, except for H-L134P, the protein with fully open pores in protein crystals, where the concentration was 4×10^−7 M to compensate for the lower signal at higher temperatures. Contributions of the solvent to the protein spectra were subtracted. Molar ellipticities at 220 nm were determined from the optical rotation, and the percent alpha helix content was calculated as described by Frére et al (Frere, V., Sourgen, F., Monnot, M., Troalen, F. & Fermandjian, S. (1995) J Biol Chem 270, 17502-17507) and Zhong and Johnson (Zhong, L. & Johnson, W. C. J. (1992) Proc Natl Acad Sci USA 89, 4462-4465). Curves were fit to the data using Sigmaplot 8.0. Fits and data matched with P<0.001. Data presented for H-L 134P ferritin are representative of two sets of measurements on one preparation and the data for the H-wild type protein, with and without urea, are representative of 3 independent protein preparations."}, "[6]": {"target": "T1, ferritin", "experiment": "Fe uptake and mineralization / Fe(II) oxidation at the ferroxidase site (A650)", "format": "biochemical, bullfrog", "method": "The temperature of the helix coil/transition in the pore was lower in both H-L134P protein and the wild type protein +1 mM urea (FIG. 3B) and is in the physiological range. […] However, the stability of the partially unfolded H-L 134P protein was lower, and loss of helix continued between 45° C. and 65° C. […] Rates were 1.9±0.1×10^−3, 2.93±0.1×10^−3 and 4.68±0.06×10^−3 mmoles/second for H-WT ferritin+1 mM urea, H-L134P ferritin and Wild Type H ferritin+1M urea, respectively (FIGS. 2A, B). The local nature of the helix/coil transition induced by 1 mM urea observed between 35° C. and 50° C. (FIG. 3B), is emphasized by the small effects on other ferritin functions such as Fe uptake and mineralization where the rates were 0.67±0.01 and 0.57±0.01 ΔA650s^−1 for zero and 10 mM urea, respectively, for 480 Fe/protein."}, "[7]": {"details": "1M NaCl, MOPS buffer (data not shown)"}, "[8]": {"details": "1.0 mM to 1 M urea or guanidine"}},
  "note": "Values joined by “and” are separate entries in the source; they are usually repeats but may differ in a detail not shown here. Equal values may be shown once. Where a name gives a salt, the structure may show the parent alone.",
  "data": [
    {"molecule": "CC(=O)N(O)CCCCCNC(=O)CCC(=O)N(O)CCCCCNC(=O)CCC(=O)N(O)CCCCCN", "note": "[Desferal®, desferrioxamine mesylate]", "values": [
      {"measurement": "Fe that could be chelated", "setting": "[1]", "value": 10, "unit": "%"},
      {"measurement": "Fe removal from ferritin in solution", "setting": "[2]", "value": "removes little Fe"}
    ]},
    {"molecule": "[Cl-].[Na+]", "note": "[NaCl, Sodium chloride, reference compound]", "values": [
      {"measurement": "initial rate of Fe(II)-bipyridyl formation", "setting": "[3]; [7]", "value": "decreased"},
      {"measurement": "total amount of Fe chelated", "setting": "[3]; [7]", "value": "decreased"}
    ]},
    {"molecule": "Cl.N=C(N)N", "note": "[guanidine, guanidine hydrochloride]", "values": [
      {"measurement": "effect on formation rate of Fe(II)-bipyridyl", "setting": "[3]; Gd.HCl at 0.1 mM", "value": "increased rates significantly"},
      {"measurement": "effect on ferritin iron release (formation rate of Fe(II)-bipyridyl)", "setting": "[3]; Gd.HCl at 1 and 10 mM", "value": "comparable to the effect of 1 and 10 mM urea"},
      {"measurement": "Average % nonviable cells", "setting": "[4]; 1 mM, 24 hours at 37° C.", "value": 6, "unit": "%"},
      {"measurement": "cell viability versus cells in normal medium", "setting": "[4]; indicated concentrations (1 mM)", "value": "No significant difference"}
    ]},
    {"molecule": "NC(N)=O", "note": "[urea]", "values": [
      {"measurement": "time for removal of >95% of the Fe", "setting": "[3]; 1 mM urea", "value": 33, "unit": "min"},
      {"measurement": "time for removal of >95% of the Fe", "setting": "[3]; 10 mM urea", "value": 13, "unit": "min"},
      {"measurement": "increase over the initial rate without urea", "setting": "[3]; 1 M urea", "value": 4.81, "unit": "fold"},
      {"measurement": "time for removal of >95% of the Fe", "setting": "[3]; 1 M urea", "value": 4, "unit": "min"},
      {"measurement": "initial rate of Fe(II) bipyridyl formation", "setting": "[3]; 2 M urea", "value": "1.02±0.11×10^−3 mmoles/second"},
      {"measurement": "time for removal of >95% of the Fe", "setting": "[3]; 2 M urea", "value": 20, "unit": "min"},
      {"measurement": "initial rate of Fe(II) bipyridyl formation", "setting": "[3]; H-WT ferritin, 1 mM urea", "value": "1.90±0.11×10^−3 mmole/second and 1.9±0.1×10^−3 mmole/second"},
      {"measurement": "initial rate of Fe(II) bipyridyl formation", "setting": "[3]; H-WT ferritin, 1 M urea", "value": "4.68±0.06×10^−3 mmoles/second"},
      {"measurement": "decrease in the time to release 50% of the total iron in ferritin", "setting": "[3]; chelator 2,2′-bipyridine, absorbance at 522 nm=0.4", "value": 10, "unit": "fold"},
      {"measurement": "increase in the initial rate of iron release", "setting": "[3]", "value": "2-4 fold"},
      {"measurement": "most effective concentrations", "setting": "[3]; urea, enhancement of iron release", "value": "1 to 1000", "unit": "mM"},
      {"measurement": "Fe(II)-bipyridyl formation in the absence of FMN/NADH", "setting": "[3]; urea-treated protein, no reductant", "value": "No Fe(II)-bipyridyl formed"},
      {"measurement": "downshift of a helix/coil transition", "setting": "[5]; [8]", "value": 10, "unit": "°C"},
      {"measurement": "helix/coil transition temperature after downshift", "setting": "[5]; [8]", "value": 43, "unit": "°C"},
      {"measurement": "Tm (midpoint) of decrease in helix structure", "setting": "[5]; WT ferritin, 1 mM urea", "value": 41, "unit": "°C"},
      {"measurement": "helix loss", "setting": "[5]; WT ferritin, 1 mM urea", "value": "~10", "unit": "%"},
      {"measurement": "increase of transition temperature in the absence of urea versus 1 mM urea", "setting": "[5]; wild type ferritin", "value": 12, "unit": "°C"},
      {"measurement": "rate of Fe uptake and mineralization", "setting": "[6]; 10 mM urea, 480 Fe/protein", "value": "0.57±0.01 ΔA650s^−1"},
      {"measurement": "Fe(II) oxidation, a measure of Fe(II) entry and binding to the ferroxidase site", "setting": "[6]; urea-treated ferritin", "value": "slightly inhibited"}
    ]},
    {"molecule": "Triton X-100", "values": [
      {"measurement": "most effective concentration", "setting": "[3]; Triton X-100, enhancement of iron release", "value": "1.0-10 % (volume/volume)"},
      {"measurement": "effect on ferritin iron release (formation rate of Fe(II)-bipyridyl)", "setting": "[3]; Triton X-100 at 1% and 10%", "value": "comparable to the effect of 1 and 10 mM urea"},
      {"measurement": "increase in the initial rate of iron release", "setting": "[3]", "value": "2-3 fold"},
      {"measurement": "toxicity to cells", "setting": "[4]; 1.0% and 10% (data not shown)", "value": "toxic"}
    ]}
  ]
}
